What was measured:
Covid [1] = assay: Retama Manor nursing home 15 month study, vitamin D protocol, Covid positive tests; assay type: in vivo, human
[2] = vitamin D exposure over 10 years; cohort of 12,388 persons; cited from earlier work
Covid [3] = assay: One year investigation at Prestige Home Health, vitamin D protocol, Covid positive tests; assay type: in vivo, human; conditions: target vitamin D level 60 ng/ml
Description: In order to test some of the concepts disclosed herein, a one year investigation was conducted to gather data where there was an objective of bringing participants to a target level of vitamin D of 60 ng/ml treated at home by staff at Prestige Home Health in Starr county, Texas and also residents of nursing homes. Data on patients and staff was provided by Yolanda Garza registered nurse (RN)/Director of Nursing (DON) on Sep. 19, 2022. For patients that followed the disclosed protocol, zero tested positive for Covid as compared to fifty-three patients who tested positive for Covid who were not on the protocol. During the same one year period, four staff members on the disclosed protocol tested positive for Covid compared to 83 staff members who tested positive who were not on the disclosed protocol. Prestige Home Health also provided portable humidifiers in homes of many of the patients treated at home. Little or no sensors were provided to determine the level of humidification. Retama Manor also tried to make indoor humidify viral safe inside their facility by including humidifiers again without sensors. Though the capacity of their humidifiers was subpar, indoor humidity in all likelihood contributed to the facility's remarkable overall success. Only one patient at Retama Manor whose Vitamin D level was in the viral safe range tested positive during the 15 month study period.

[4] = system: acute respiratory illness; conditions: higher doses of vitamin D; patients studied for a year; cited from earlier work

Substance: vitamin D
- Covid cases per staff member, less than the other two nursing homes (Covid [1]; Retama Manor versus the other two nursing homes in Rio Grande City): 45%
- patients on vitamin D protocol / in viral safe range who tested positive for Covid (Covid [1]; Retama Manor, 15 month (six quarter) study period): one
- Dr. Mussett's patients who tested positive for Covid (Covid [1]; their patients at all three nursing homes in Rio Grande City, study period): two
- lowering of the risk of dementia [2]: 40%
- patients on the disclosed protocol who tested positive for Covid (Covid [3]; 53 positive patients not on protocol): zero
- staff members on the disclosed protocol who tested positive for Covid (Covid [3]; 83 positive staff not on protocol): four
- reduction in acute respiratory illness [4]: 40%

From patent US12100497B1, “Population-based immune rescue via herd immunity mediated by cells” (Channel Content Company LLC, priority 2023, dated 2024)
